We go through ten compounds from US20240246913A1, “2-CARBOXYL-INDOLE INHIBITORS OF METALLO-BETA-LACTAMASES” (Oxford University Innovation Limited, priority 2021, published 2024).

The target of one data set is NDM-1 (Klebsiella pneumoniae, UniProt C7C422). As to the kind of experiment: MBL inhibition, FC-5 fluorescence assay, NDM-1. Format: biochemical. Conditions: FC-5 cephalosporin substrate, fluorescence; ranges of obtained pIC50; read-out: pIC50 NDM-1 (converted). Put shortly:
(§1)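 Fluorescence read-out (380 nm excitation, 460 nm emission) tracks fluorophore liberated when each enzyme breaks down cephalosporin substrate FC-5. Initial rates across inhibitor concentrations, each run in quadruplicate on the plate, give normalized curves fitted with a variable Hill slope.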

Another data set deals with VIM-1 (Pseudomonas aeruginosa, UniProt A0A0F7KYQ8). As to the kind of experiment: MBL inhibition, FC-5 fluorescence assay, VIM-1. Type of data set: biochemical. Conditions: FC-5 cephalosporin substrate, ranges of obtained pIC50, read-out: pIC50 VIM-1 (converted). Put shortly:
as §1

A short description of data set [1]: Plasma protein binding, equilibrium dialysis, mouse plasma. Type of data set: in vitro ADME. Conditions: pH 7.4, equilibrium dialysis (RED) 4 hours at 37° C., read-out: Plasma protein binding, fu, Mouse. As for the experimental part:
The fraction of unbound compound (fu) in plasma from human or other animal species was determined by equilibrium dialysis at 37° C. for 4 hours using the Rapid Equilibrium Dialysis (RED) device (ThermoFisher Scientific). The test compound at a concentration of 10 μM was added to plasma and dialyzed against isotonic phosphate buffer (67 mM, pH 7.4) over 4 hours at 37° C. After dialysis, compound concentrations in buffer and plasma were quantified by LC-MS/MS. In parallel the stability of the compound in plasma was determined by incubating drug-spiked plasma (10 μM) at 37° C. for 4 hours, meanwhile the control plasma sample was kept in the freezer. The concentration of the compound in both samples was quantified by LC-MS/MS (Waters Corp, Milford, MA, USA).
(In equilibrium dialysis free small molecules cross a membrane that holds back macromolecules.)

The nature of data set [2]: Metabolic stability in mouse hepatocytes. Conditions: cryopreserved mouse hepatocytes, 1 μM compound, 37° C., up to 90 min, read-out: Metabolic stability in hepatocytes, in vitro t1/2, Mouse. Type of data set: in vitro ADME. As for the experimental part:
(§2) Metabolic stability assays were performed in cryopreserved human and mouse hepatocytes. The hepatocytes were thawed and added to “Thawing media”, and centrifuged to pellet the hepatocytes. The cell pellet was taken up in Williams medium E (Invitrogen A1217601), the number of cells was calculated and adjusted to 1.0×10^6 cells/mi. The incubation was carried out on a heater-shaker at […], in a 24-well Picoplate (round bottom, PerkinElmer), using an incubation volume of […]. Thus, to obtain a final compound concentration of 1 μM, 0.7 μl of the 1 mM compound stock solution was pipetted to the wells of the plate. Reaction was initiated by adding 700 μl of cell suspension. Samples were incubated at 37° C. for […] and a zero sample was taken, i.e. 100 μl sample was removed to a 96-well plate and the reaction was quenched by adding 100 μl of 100% MeCN containing 50 nM Warfarin as an internal control. Consecutive samples were taken at time-points 5 min, 15 min, 30 min, 60 min, and 90 min. After finishing the experiment, samples were centrifuged at 3000 rpm for 15 min and before analysis by LC-MS/MS (Waters Corp, Milford, MA, USA).

Data set [3] can be described thus: Metabolic stability in human hepatocytes. Type of data set: in vitro ADME. Conditions: cryopreserved human hepatocytes, 1 μM compound, 37° C., up to 90 min, read-out: Metabolic stability in hepatocytes, in vitro t1/2, Human. As for the experimental part: as §2
The nature of data set [4]: Plasma protein binding, equilibrium dialysis, human plasma. Particulars: pH 7.4, equilibrium dialysis (RED) 4 hours at 37° C., read-out: Plasma protein binding, fu, Human. Format: in vitro ADME. In a few lines:
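Compound at 10 μM in plasma dialysed against 67 mM phosphate buffer pH 7.4 for 4 h at 37° C. in RED device; unbound fraction from buffer and plasma levels by LC-MS/MS. Plasma stability checked in parallel over 4 h at 37° C. versus frozen control.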

The next data set addresses IMP-1 (Serratia marcescens, UniProt P52699). The experiment in a line: MBL inhibition, FC-5 fluorescence assay, IMP-1. Particulars: FC-5 cephalosporin substrate, fluorescence; ranges of obtained pIC50; read-out: pIC50 IMP-1 (converted). Format: biochemical. Put shortly:
as §1

For the next data set, the target named is VIM-2 (Escherichia coli, UniProt Q5U7L7). The experiment in a line: MBL inhibition, FC-5 fluorescence assay, VIM-2. Format: biochemical. Particulars: FC-5 cephalosporin substrate, ranges of obtained pIC50, read-out: pIC50 VIM-2 (converted). Put shortly: as §1
Another data set concerns Escherichia coli NDM-7. As to the kind of experiment: Antibiotic susceptibility testing (MIC), EC NDM-7. Particulars: agar or broth dilution (CLSI/EUCAST). Type of data set: cell-based. As for the experimental part: (§3) Antibiotic susceptibility testing was performed using the agar or broth dilution method, in line with the Clinical and Laboratory Standards Institute (CLSI) and European Committee on Antimicrobial Susceptibility Testing (EUCAST) requirements.
(In general: In broth dilution the organism is exposed to a series of concentrations in liquid medium.)

Data set [5] has as its system Acinetobacter baumannii NDM-1. As to the kind of experiment: Antibiotic susceptibility testing (MIC), AB NDM-1. Format: cell-based. Conditions: agar or broth dilution (CLSI/EUCAST). As for the experimental part: as §3
The test system of another data set is Escherichia coli NDM-1. The experiment in a line: Antibiotic susceptibility testing (MIC), EC NDM-1. Particulars: agar or broth dilution (CLSI/EUCAST). Format: cell-based. As for the experimental part: as §3

Sequence of NDM-1 (C7C422 29-270, looked up, species assumed): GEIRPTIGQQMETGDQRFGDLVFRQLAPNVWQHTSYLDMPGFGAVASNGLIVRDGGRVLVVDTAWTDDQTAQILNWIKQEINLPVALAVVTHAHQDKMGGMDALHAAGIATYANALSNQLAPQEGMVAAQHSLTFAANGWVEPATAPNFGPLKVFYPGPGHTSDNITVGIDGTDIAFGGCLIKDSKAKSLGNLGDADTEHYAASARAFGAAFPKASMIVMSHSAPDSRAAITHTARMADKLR
Sequence of IMP-1 (P52699 19-246, looked up, species assumed): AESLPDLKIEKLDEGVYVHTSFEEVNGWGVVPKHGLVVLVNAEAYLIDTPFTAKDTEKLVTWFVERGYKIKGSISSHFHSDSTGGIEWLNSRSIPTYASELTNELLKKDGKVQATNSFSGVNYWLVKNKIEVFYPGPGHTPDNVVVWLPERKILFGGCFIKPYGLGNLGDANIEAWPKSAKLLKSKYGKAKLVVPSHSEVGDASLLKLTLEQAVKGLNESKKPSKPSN

Turning to `CC(NC(=O)[C@H]1CC[C@H](CN)CC1)c1cccc2c(-c3ccc(CS(C)(=O)=O)c(F)c3)c(C(=O)O)[nH]c12` (mixture of isomers) [IC-99, 7-[1-[[4-(Aminomethyl)cyclohexanecarbonyl]amino]ethyl]-3-[3-fluoro-4-(methylsulfonylmethyl)phenyl]-1H-indole-2-carboxylic acid], the IC50 is 1 to 10 nM at NDM-1, above 10 nM on VIM-1, above 10 nM at IMP-1 and below 0.1 nM at VIM-2. Besides, the fraction unbound at 4 h, 10 μM in data set [1] and in data set [4] was 0.05 to 0.25 in each case. Further, the half-life at 1 μM in data set [2] and in [3] was above 6.67 h in each case.
As for `C[C@H](OCc1ccc(CN)cc1)c1cccc2c(-c3ccc(CS(C)(=O)=O)c(Cl)c3)c(C(=O)O)[nH]c12` (single isomer, unassigned) [IC-87], the IC50 was below 0.1 nM on NDM-1, 1 to 10 nM at VIM-1, 1 to 10 nM at IMP-1 and 0.1 to 1 nM on VIM-2. Moreover, the fraction unbound at 4 h, 10 μM in data set [1] is 0.05 to 0.25; in data set [4], 0.005 to 0.05. Also, the results for the half-life at 1 μM in data set [2] and in data set [3] were below 2.5 h and above 6.67 h, respectively.
`C[C@@H](OCc1ccc(CN)cc1)c1cccc2c(-c3ccc(CS(C)(=O)=O)c(Cl)c3)c(C(=O)O)[nH]c12` (single isomer, unassigned) [IC-88]: the IC50 at NDM-1 was 0.1 to 1 nM; on VIM-1 it was above 10 nM; at IMP-1, 1 to 10 nM; at VIM-2 it was above 10 nM. The fraction unbound at 4 h, 10 μM in data set [1] is below 0.005; in data set [4] it was 0.005 to 0.05. Also, the half-life at 1 μM in data set [2] is below 2.5 h; in [3] it was above 6.67 h.
Regarding `C[C@@H](c1cccc2c(-c3ccc(NS(C)(=O)=O)c(C#N)c3)c(C(=O)O)[nH]c12)N1C[C@]2(C[C@@H](CN)C2)OC1=O` [IC-16, 7-((1S)-1-(2-(aminomethyl)-6-oxo-5-oxa-7-azaspiro[3.4]octan-7-yl)ethyl)-3-(3-cyano-4-(methylsulfonamido)phenyl)-1H-indole-2-carboxylic acid], the “MIC values EC NDM-7” value in the data set on Escherichia coli NDM-7 is listed as “A (A = MIC values ≤ 1)”. For the same compound, the IC50 at NDM-1 is below 0.1 nM; on VIM-1, 1 to 10 nM; at IMP-1, above 10 nM; at VIM-2, 0.1 to 1 nM. Besides, the fraction unbound at 4 h, 10 μM in data set [1] and in data set [4] was 0.05 to 0.25 each time. In data set [5], the “MIC values AB NDM-1” value is recorded as “B (B MIC values 2 ÷ 8)”. Besides, the half-life at 1 μM in [2] and in data set [3] was above 6.67 h in each case. The “MIC values EC NDM-1” value against Escherichia coli NDM-1 is on record as “A (A = MIC values ≤ 1)”.
As for `C[C@@H](c1cccc2c(-c3ccc(NS(C)(=O)=O)c(C#N)c3)c(C(=O)O)[nH]c12)n1cc(CN2CC(N)C2)oc1=O` [IC-55, 7-[(1S)-1-{5-[(3-aminoazetidin-1-yl)methyl]-2-oxo-2,3-dihydro-1,3-oxazol-3-yl}ethyl]-3-(3-cyano-4-methanesulfonamidophenyl)-1H-indole-2-carboxylic acid], the “MIC values EC NDM-7” value against Escherichia coli NDM-7 was “B (B MIC values 2 ÷ 8)”. Moreover, the IC50 at NDM-1 was below 0.1 nM; on VIM-1, above 10 nM; on IMP-1 it was above 10 nM; on VIM-2, 0.1 to 1 nM. In addition, the fraction unbound at 4 h, 10 μM was in the range of 0.005 to 0.05 in [1] and 0.05 to 0.25 in data set [4]. The “MIC values AB NDM-1” value in data set [5] was “B (B MIC values 2 ÷ 8)”. The half-life at 1 μM in data set [2] and in [3] was 2.5 to 6.67 h each time. In addition, the “MIC values EC NDM-1” value against Escherichia coli NDM-1 is “B (B MIC values 2 ÷ 8)”.
For the compound `CC(OCc1ccc(CN)cc1)c1cccc2c(-c3ccc(NS(C)(=O)=O)c(C#N)c3)c(C(=O)O)[nH]c12` (centres unmarked) [IC-86, 7-(1-((4-(Aminomethyl)benzyl)oxy)ethyl)-3-(3-cyano-4-(methylsulfonamido)phenyl)-1H-indole-2-carboxylic acid], the IC50 at NDM-1 was below 0.1 nM; at VIM-1 it was above 10 nM; on IMP-1 it was above 10 nM; on VIM-2, 1 to 10 nM. Moreover, the fraction unbound at 4 h, 10 μM in [1] lay in the range of 0.05 to 0.25; in data set [4], 0.005 to 0.05. Besides, the half-life at 1 μM in [2] was below 2.5 h; in data set [3], above 6.67 h.
`CC(OCC1CCNCC1)c1cccc2c(-c3ccc(CS(C)(=O)=O)c(F)c3)c(C(=O)O)[nH]c12` (centres unmarked) [IC-89, 3-(3-Fluoro-4-((methylsulfonyl)methyl)phenyl)-7-(1-(piperidin-4-ylmethoxy)ethyl)-1H-indole-2-carboxylic acid]: the IC50 at NDM-1 was 0.1 to 1 nM; on VIM-1, 1 to 10 nM; on IMP-1, above 10 nM; at VIM-2, 1 to 10 nM. Further, the fraction unbound at 4 h, 10 μM in data set [1] and in [4] was 0.05 to 0.25 in each case. Further, the half-life at 1 μM in [2] and in [3] was above 6.67 h in each case.
In the case of `CC(Oc1ccc(CN)cc1)c1cccc2c(-c3ccc(CS(C)(=O)=O)c(F)c3)c(C(=O)O)[nH]c12` (centres unmarked) [IC-92, 7-(1-(4-(Ammoniomethyl)phenoxy)ethyl)-3-(3-fluoro-4-((methylsulfonyl)methyl)phenyl)-1H-indole-2-carboxylate], the IC50 at NDM-1, at VIM-1, at IMP-1 and at VIM-2 was 1 to 10 nM throughout. Moreover, the figures for the fraction unbound at 4 h, 10 μM in data set [1] and in data set [4] were 0.005 to 0.05 and 0.05 to 0.25, respectively. In addition, the results for the half-life at 1 μM in data set [2] and in data set [3] were 2.5 to 6.67 h and above 6.67 h, respectively.
On to `CC(OC(=O)N1CCC(CN)CC1)c1cccc2c(-c3ccc(CS(C)(=O)=O)c(F)c3)c(C(=O)O)[nH]c12` (centres unmarked) [IC-95, 7-(1-((4-(Aminomethyl)piperidine-1-carbonyl)oxy)ethyl)-3-(3-fluoro-4-((methylsulfonyl)methyl)phenyl)-1H-indole-2-carboxylic acid], for which the IC50 at NDM-1 was 0.1 to 1 nM; on VIM-1, above 10 nM; at IMP-1, above 10 nM; on VIM-2, 1 to 10 nM. Moreover, the fraction unbound at 4 h, 10 μM in data set [1] lay within 0.005 to 0.05; in [4], 0.05 to 0.25. For the same compound, the half-life at 1 μM in [2] and in data set [3] was above 6.67 h throughout.
As for `CC(c1cccc2c(-c3ccc(CS(C)(=O)=O)c(F)c3)c(C(=O)O)[nH]c12)N(C)C(=O)c1ccc(CN)cc1` (centres unmarked) [IC-97, 7-(1-(4-(Aminomethyl)-N-methylbenzamido)ethyl)-3-(3-fluoro-4-((methylsulfonyl)methyl)phenyl)-1H-indole-2-carboxylic acid], the IC50 is 1 to 10 nM at NDM-1, above 10 nM on VIM-1, above 10 nM at IMP-1 and 1 to 10 nM at VIM-2. Also, the fraction unbound at 4 h, 10 μM in data set [1] and in [4] was 0.05 to 0.25 throughout. Moreover, the half-life at 1 μM in [2] was below 2.5 h; in [3], above 6.67 h.
